The values that follow come from US20250249001A1, “METHODS OF TREATING SUBSTANCE USE DISORDER WITH 4-(3-CYANOPHENYL)-6-PYRIDINYLPYRIMIDINE MGLU5 NEGATIVE ALLOSTERIC MODULATORS” (Tempero Bio, Inc., priority 2022, published 2025).

SMILES strings stand for the structures.

Series [1] deals with voluntary home-cage alcohol drinking by Wistar rats. Put plainly: Home-cage two-bottle choice alcohol drinking, acute treatment. Type of series: in vivo. The procedure: Animals: Male Wistar rats (Charles River Laboratories, INC) were used in these studies. Rat housing and testing was conducted at the University of North Carolina at Chapel Hill (UNC-CH) School of Medicine in a state-of-the-art rodent vivarium approved by the Association for Assessment and Accreditation of Laboratory Animal Care International (AAALAC). Rat health was monitored daily by study investigators and veterinarians in the Division of Comparative Medicine UNC. All experimental procedures were carried out in accordance with the NIH Guide to Care and Use of Laboratory Animals (Committee for the Update of the Guide for the Care and Use of Laboratory Animals, 2011) and institutional guidelines.
Rats were housed individually in standard Plexiglas cages with standard rodent food and water available ad libitum. Upon arrival from the vendor, rats were given 7 days to acclimate to the vivarium during which they were weighed and handled by an investigator each day to monitor general health and habituate them to human contact. Rats were then weighed each day within 1-h of experimental procedures to calculate drug dosages relative to body weight. […] The colony was maintained at […] on a 12-hour light/dark cycle, with the lights on from 10 AM-10 PM. All behavioral experiments were conducted during the light portion of the light cycle.
(§1) Home-cage alcohol drinking method. Oral alcohol and water intake were examined using a two-bottle choice protocol, which is standard in the field and commonly used in our laboratory. Male Wistar rats (n=12) were first adapted to drinking from a 50 ml conical tube fitted with a standard stainless-steel ball bearing sipper tube that limits spillage. Then, two bottles were place on the cage daily. One bottle contained an alcohol solution and the other contained water. Bottles containing fresh solutions were weighed daily before and after a 24 hr access period. After drug treatment, bottles were weighed after 1 hr and 24 hrs of access. Each week, rats had 4-5 days of sweetened alcohol and water available and the remaining days only water.
(§2) Briefly, rats were first exposed to alcohol (10% v/v)+sucrose (5% w/v). versus water in the two bottles. Then, over a period of 6-weeks, the concentrations of alcohol and sucrose were gradually adjusted to alcohol (8% v/v)+sucrose (2% w/v) to achieve intake of pharmacologically relevant doses of alcohol. Rats were maintained at this concentration for the duration of the experiment for both acute (3.1.a) and chronic (3.1.b) home-cage drinking studies. Use of sweetened alcohol solutions in preclinical research provides face validity to the binge-intoxication stage of alcohol addiction in humans where sweeteners are commonly added to alcohol.
Compound 1 treatment. After establishing baseline intake of sweetened alcohol and water, rats were habituated to i.p. injections. All rats (N=12) were administered 3 habituation injections of vehicle (10% w/v kolliphor in BCD (10%)) prior to the Compound 1 dose response curve and alcohol intake was measured. Then, the Compound 1 dose response curve was conducted with dose order randomized according to a modified Latin-Square design. Rats were given a minimum of 1-2 days between injections to ensure normal drinking was re-established in absence of drug administration. Each dose of Compound 1 (0-10 mg/kg) was administered via i.p. injection and rats were placed back in the home-cage for 1 hr prior to the return of sweetened alcohol and water. Alcohol intake was measured after 1-h and 24-hrs of access in grams by weighing the drinking bottles. Data were excluded from 1 rat that emptied both bottles fully each day without drinking the solutions; thus, results are presented for a final group of N=11 rats.
Efficacy comparisons to MPEP and Naltrexone. […]

Series [2] has the same test system. The series is described as follows: Home-cage alcohol drinking, repeated treatment (A-B-A design). Format: in vivo. The procedure:
as §1, §2
Repeated treatment with Compound 1. To evaluate effects of repeated treatment with Compound 1 on home-cage alcohol drinking, baseline intake of sweetened alcohol and water, and habituation to i.p. injections was conducted as described above in a separate group of male Wistar rats (n=12). During habituation to i.p. injections, rats were moved to a 7 day per week alcohol access schedule to allow for chronic daily treatment. Rats were then administered vehicle (4 consecutive days), Compound 1 (3 mg/kg, 7 consecutive days), then vehicle (4 consecutive days) according to an A-B-A experimental design for a total of 15 days. Access to alcohol was provided 1-hr after vehicle or Compound 1 injection. Alcohol and water intake were measured as described above after 1-hr and 24-hrs of access.

Series [3] is described as follows: Phase 1 multiple ascending dose study, exposure. Type of series: in vivo, healthy subjects. The note with it: 100 mg/day (50 mg twice per day) oral; study suspended at day 9 after dosage of 6 patients. An excerpt: Example 5 presents the protocol for a suspended, multiple ascending dose (MAD) study to evaluate the safety, tolerability, and pharmacokinetics (PK) of Compound 1 in healthy subjects. In the following paragraphs, Example 5 is described in the future tense for sake of brevity; the study was suspended at day 9 after dosage of 6 patients. […] Example 6 presents the protocol for a planned, amended Phase 1 MAD study.
Study Objectives and Endpoints—See Table 12 for Study Objectives and Endpoints. There will be up to 4 dose cohorts, and within each cohort subjects will be randomly assigned to receive either active drug or placebo. Study subjects will be administered active drug or placebo twice daily for 14 days (note: only the AM dose is administered on Day 14).
Each subject will be randomly assigned to 1 of the following cohorts: Cohort 1: Group 1 (6 subjects): 50 mg of Compound 1 twice daily (bid); Group 2 (2 subjects): placebo (matching Compound 1) bid. Cohort 2: Group 3 (6 subjects): 100 mg of Compound 1 bid; Group 4 (2 subjects): placebo (matching Compound 1) bid. Cohort 3: Group 5 (6 subjects): 150 mg of Compound 1 bid; Group 6 (2 subjects): placebo (matching Compound 1) bid.

Consider `N#Cc1cc(Cl)cc(-c2cc(-c3ccc(F)cn3)ncn2)c1` [Compound 1, 3-chloro-5-[6-(5-fluoropyridin-2-yl)pyrimidin-4-yl]benzonitrile], for which, in series [1] (10 mg/kg i.p. acute), the “alcohol intake after 24-hrs of access vs vehicle” value is reported as “did not achieve statistical significance”. The “dosage giving the greatest reduction in EtOH intake” value in series [1] (1-hr access, dose range 0-10 mg/kg i.p.) is reported as 3 mg/kg. Besides, the “alcohol intake (EtOH g/kg/1-h) after 1-hr access vs vehicle control” value in series [1] (Compound 1 1, 3, and 10 mg/kg i.p. acute, 1 hr before access, sweetened alcohol, N=11) is reported as “significantly decreased alcohol intake”. The “alcohol intake after 24-hrs of access vs vehicle” value in series [1] (Compound 1 1 and 3 mg/kg i.p. acute) is reported as “significantly decreased alcohol intake”. In series [1] (each drug 3 mg/kg i.p. acute), the “alcohol intake at the 24-hr measurement interval, comparison of equivalent doses” value is “maintained efficacy”. Moreover, the “alcohol drinking at 1-hr of access vs vehicle control, positive control comparison” value in series [1] (each drug 3 mg/kg i.p. acute, N=11) is listed as “significantly decreased alcohol drinking”. In addition, in series [2] (3 mg/kg i.p. daily for 7 days), the “H2O intake, 1-hr access, averaged across the 3 experimental phases” value is recorded as “decreased water intake”; the “H2O intake, 24-hrs access, averaged across the experimental phases” value is “reduction in H2O intake as compared to the first vehicle condition only”; the “alcohol intake, 24-hr access, averaged over each treatment condition” value is listed as “no effect”; the “average alcohol intake over the 7-day treatment phase, 1-hr access, vs Veh-1 and Veh-2” value is “significantly decreased alcohol intake”. Besides, in series [2] (3 mg/kg i.p. daily, days 5-11), the “H2O intake, 1-hr access, individual treatment days” value was “failed to identify a significant change at a particular treatment day”; the “H2O intake, 24-hrs access, individual treatment days” value is “significant reductions in H2O intake at days 7 and 11”; the “alcohol intake, 1-hr access, individual treatment days vs day 4 vehicle” value is on record as “reduced alcohol intake only on day 5”; the “alcohol intake, 24-hr access, individual treatment days vs day 4 vehicle” value is reported as “reduced alcohol intake only on day 5”. In addition, the “exposure in healthy subjects” value in series [3] was “greater than expected exposure”.
